This passage reports IC50 and Ki results from ChEMBL document CHEMBL1909046, “DrugMatrix in vitro pharmacology data”.

The first test deals with T1, C-X-C chemokine receptor type 1 (Homo sapiens, UniProt P25024).
T1 sequence (P25024 whole entry): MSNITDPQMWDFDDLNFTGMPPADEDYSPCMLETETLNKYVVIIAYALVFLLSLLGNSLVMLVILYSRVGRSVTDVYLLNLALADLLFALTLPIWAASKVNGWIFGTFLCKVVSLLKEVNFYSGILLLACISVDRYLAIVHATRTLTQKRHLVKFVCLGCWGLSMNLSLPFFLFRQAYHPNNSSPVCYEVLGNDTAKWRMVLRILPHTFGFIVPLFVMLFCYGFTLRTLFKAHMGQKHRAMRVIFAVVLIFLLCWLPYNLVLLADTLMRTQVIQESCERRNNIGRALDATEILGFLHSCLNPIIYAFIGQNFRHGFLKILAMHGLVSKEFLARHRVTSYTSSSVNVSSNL
Assay: not given
Conditions: not given
Broadly, the IC50 is the concentration at which inhibition is half-maximal. Take `CC1=Nc2ccc(Cl)cc2S(=O)(=O)N1` [DIAZOXIDE]: the IC50 result was “Not Active”.

As for `CC(C)(Oc1ccc(CCNC(=O)c2ccc(Cl)cc2)cc1)C(=O)O` [BEZAFIBRATE], the IC50 result is listed as “Not Active”.

As for `CCCCOC(=O)c1ccc(N)cc1` [BUTAMBEN], the IC50 result is reported as “Not Active”.

For `COCc1c(C(C)C)nc(C(C)C)c(/C=C/[C@@H](O)C[C@@H](O)CC(=O)O)c1-c1ccc(F)cc1` [CERIVASTATIN], the IC50 entry is reported as “Not Active”.

Regarding CISPLATIN, the IC50 entry is reported as “Not Active” and the Ki entry is recorded as “Not Active”.

The target in a further test is T2, Vasoactive intestinal polypeptide receptor 1 (Homo sapiens, UniProt P32241). Also: in other assays of this panel Not Active means under 50% inhibition at 10 µM.
T2 sequence (P32241 whole entry): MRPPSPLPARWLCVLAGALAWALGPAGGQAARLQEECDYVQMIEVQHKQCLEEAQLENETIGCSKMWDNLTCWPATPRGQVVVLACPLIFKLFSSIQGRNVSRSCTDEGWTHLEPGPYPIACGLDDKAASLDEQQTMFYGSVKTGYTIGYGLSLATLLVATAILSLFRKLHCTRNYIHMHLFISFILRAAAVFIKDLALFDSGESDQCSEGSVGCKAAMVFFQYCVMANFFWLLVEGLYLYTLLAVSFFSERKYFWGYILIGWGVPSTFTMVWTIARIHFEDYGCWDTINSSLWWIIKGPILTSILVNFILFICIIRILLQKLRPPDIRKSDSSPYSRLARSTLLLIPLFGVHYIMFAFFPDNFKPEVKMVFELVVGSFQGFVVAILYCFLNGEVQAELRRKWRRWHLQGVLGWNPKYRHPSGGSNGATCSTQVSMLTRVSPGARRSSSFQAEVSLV
Assay: not given
The class given is cell membranes, Membrane. The settings on record: ht-29.
With `CC1=Nc2ccc(Cl)cc2S(=O)(=O)N1` [DIAZOXIDE], the IC50 entry is listed as “Not Active”.

As for `CC(C)(Oc1ccc(CCNC(=O)c2ccc(Cl)cc2)cc1)C(=O)O` [BEZAFIBRATE], the concentration for half-maximal inhibition (IC50) entry is “Not Active”.

For the molecule `CCCCOC(=O)c1ccc(N)cc1` [BUTAMBEN], the IC50 entry was “Not Active”.

Consider `COCc1c(C(C)C)nc(C(C)C)c(/C=C/[C@@H](O)C[C@@H](O)CC(=O)O)c1-c1ccc(F)cc1` [CERIVASTATIN], for which the IC50 entry is “Not Active”.

For the molecule CISPLATIN, the IC50 entry is listed as “Not Active” and the Ki result is reported as “Not Active”.

In the next test the target is T3, Cholecystokinin receptor type A (Homo sapiens, UniProt P32238). Also: in other assays of this panel Not Active means under 50% inhibition at 10 µM.
T3 sequence (P32238 whole entry): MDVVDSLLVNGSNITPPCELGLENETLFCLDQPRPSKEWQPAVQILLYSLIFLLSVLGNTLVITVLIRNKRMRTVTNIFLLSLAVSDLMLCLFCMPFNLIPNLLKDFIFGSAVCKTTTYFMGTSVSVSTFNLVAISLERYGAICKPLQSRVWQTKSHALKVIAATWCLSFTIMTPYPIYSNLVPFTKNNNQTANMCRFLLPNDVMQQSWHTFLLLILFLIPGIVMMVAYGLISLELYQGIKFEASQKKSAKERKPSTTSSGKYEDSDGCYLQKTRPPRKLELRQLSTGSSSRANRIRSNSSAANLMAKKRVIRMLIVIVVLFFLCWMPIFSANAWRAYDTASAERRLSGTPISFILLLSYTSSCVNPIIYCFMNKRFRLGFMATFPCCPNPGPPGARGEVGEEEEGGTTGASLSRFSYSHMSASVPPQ
Assay: not given
Type of test: cell membranes, Membrane. The settings on record: 1321-n1.
Consider `CC1=Nc2ccc(Cl)cc2S(=O)(=O)N1` [DIAZOXIDE], for which the IC50 result is recorded as “Not Active”.

As for `CC(C)(Oc1ccc(CCNC(=O)c2ccc(Cl)cc2)cc1)C(=O)O` [BEZAFIBRATE], the IC50 entry is reported as “Not Active”.

In the case of `CCCCOC(=O)c1ccc(N)cc1` [BUTAMBEN], the IC50 entry is “Not Active”.

With `COCc1c(C(C)C)nc(C(C)C)c(/C=C/[C@@H](O)C[C@@H](O)CC(=O)O)c1-c1ccc(F)cc1` [CERIVASTATIN], the IC50 entry is “Not Active”.

Take CISPLATIN: the IC50 entry was “Not Active” and the Ki result is “Not Active”.

In another test the target is T4, Glucocorticoid receptor (Homo sapiens, UniProt P04150). Also: in other assays of this panel Not Active means under 50% inhibition at 10 µM.
T4 sequence (P04150 whole entry): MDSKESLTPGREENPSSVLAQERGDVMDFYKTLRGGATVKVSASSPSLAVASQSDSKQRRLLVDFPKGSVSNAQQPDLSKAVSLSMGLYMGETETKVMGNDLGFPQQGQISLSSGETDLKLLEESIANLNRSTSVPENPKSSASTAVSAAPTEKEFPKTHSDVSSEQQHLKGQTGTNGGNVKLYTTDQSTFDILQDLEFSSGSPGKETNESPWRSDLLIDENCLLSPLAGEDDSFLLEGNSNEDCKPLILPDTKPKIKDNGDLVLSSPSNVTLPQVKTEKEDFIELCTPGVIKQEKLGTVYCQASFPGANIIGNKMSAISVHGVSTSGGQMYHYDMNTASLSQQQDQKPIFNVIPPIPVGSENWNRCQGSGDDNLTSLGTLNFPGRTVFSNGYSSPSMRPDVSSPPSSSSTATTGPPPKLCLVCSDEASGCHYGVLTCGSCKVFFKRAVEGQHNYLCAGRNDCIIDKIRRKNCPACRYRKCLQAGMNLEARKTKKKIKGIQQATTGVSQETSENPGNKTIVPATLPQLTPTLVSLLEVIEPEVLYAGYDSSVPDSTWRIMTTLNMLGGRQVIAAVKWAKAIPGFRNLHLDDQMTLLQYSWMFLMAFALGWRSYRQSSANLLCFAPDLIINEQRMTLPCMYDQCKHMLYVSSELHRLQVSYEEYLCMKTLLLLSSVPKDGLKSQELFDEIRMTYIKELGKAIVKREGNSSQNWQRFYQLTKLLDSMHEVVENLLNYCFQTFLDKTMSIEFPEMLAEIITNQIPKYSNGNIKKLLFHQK
Assay: not given
The settings on record: hela s3.
Regarding `CC1=Nc2ccc(Cl)cc2S(=O)(=O)N1` [DIAZOXIDE], the IC50 entry was “Not Active”.

As to `CC(C)(Oc1ccc(CCNC(=O)c2ccc(Cl)cc2)cc1)C(=O)O` [BEZAFIBRATE], the IC50 result is reported as “Not Active”.

With `CCCCOC(=O)c1ccc(N)cc1` [BUTAMBEN], the IC50 entry is reported as “Not Active”.

With `COCc1c(C(C)C)nc(C(C)C)c(/C=C/[C@@H](O)C[C@@H](O)CC(=O)O)c1-c1ccc(F)cc1` [CERIVASTATIN], the IC50 result is reported as “Not Active”.

On to CISPLATIN, for which the IC50 entry is “Not Active” and the Ki result is “Not Active”.

The target of another test is Tyrosine-protein kinase Lck (Homo sapiens, UniProt P06239). In words: DRUGMATRIX: Protein Tyrosine Kinase, LCK enzyme inhibition (substrate: Poly(Glu:Tyr)). The class given is cell-based, Insect cells. The settings on record: insect cells; Not Active = under 50% inhibition at 10 µM.
Sequence of Tyrosine-protein kinase Lck (P06239 whole entry): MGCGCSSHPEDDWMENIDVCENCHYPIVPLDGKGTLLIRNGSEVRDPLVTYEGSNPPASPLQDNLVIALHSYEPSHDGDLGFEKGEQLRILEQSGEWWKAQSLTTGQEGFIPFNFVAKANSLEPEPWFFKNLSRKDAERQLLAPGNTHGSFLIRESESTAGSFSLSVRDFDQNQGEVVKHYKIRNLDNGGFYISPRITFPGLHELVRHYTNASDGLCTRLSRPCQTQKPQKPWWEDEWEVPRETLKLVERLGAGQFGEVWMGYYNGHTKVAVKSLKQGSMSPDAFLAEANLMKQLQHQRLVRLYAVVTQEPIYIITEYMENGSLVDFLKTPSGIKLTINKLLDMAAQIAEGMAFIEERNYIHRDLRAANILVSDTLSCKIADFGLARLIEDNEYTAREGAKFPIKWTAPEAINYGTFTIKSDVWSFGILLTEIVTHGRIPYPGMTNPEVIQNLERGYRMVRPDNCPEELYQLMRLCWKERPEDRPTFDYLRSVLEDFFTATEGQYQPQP
For the molecule `CC1=Nc2ccc(Cl)cc2S(=O)(=O)N1` [DIAZOXIDE], the IC50 result is on record as “Not Active”.

Consider `CC(C)(Oc1ccc(CCNC(=O)c2ccc(Cl)cc2)cc1)C(=O)O` [BEZAFIBRATE], for which the IC50 entry is on record as “Not Active”.

Take `CCCCOC(=O)c1ccc(N)cc1` [BUTAMBEN]: the IC50 entry is given as “Not Active”.

Turning to `COCc1c(C(C)C)nc(C(C)C)c(/C=C/[C@@H](O)C[C@@H](O)CC(=O)O)c1-c1ccc(F)cc1` [CERIVASTATIN], the IC50 result is listed as “Not Active”.

Staying with this test, now noted: insect cells; Not Active = under 50% inhibition at 10 µM; read-out: IC50.
Consider CISPLATIN, for which the IC50 turned out to be 22.9 µM.

Another test has as its target Receptor tyrosine-protein kinase erbB-2 (Homo sapiens, UniProt P04626). In words: biochemical. The settings on record: insect cells. Type of test: cell-based, Insect cells.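 Also: inhibition of HER2 kinase enzyme activity, measured with Poly(Glu:Tyr) as the phosphorylation substrate; in other assays of this panel Not Active means under 50% inhibition at 10 µM.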
For `CC1=Nc2ccc(Cl)cc2S(=O)(=O)N1` [DIAZOXIDE], the IC50 entry is recorded as “Not Active”.

For the molecule `CC(C)(Oc1ccc(CCNC(=O)c2ccc(Cl)cc2)cc1)C(=O)O` [BEZAFIBRATE], the IC50 result is listed as “Not Active”.

Regarding `CCCCOC(=O)c1ccc(N)cc1` [BUTAMBEN], the IC50 entry is “Not Active”.

`COCc1c(C(C)C)nc(C(C)C)c(/C=C/[C@@H](O)C[C@@H](O)CC(=O)O)c1-c1ccc(F)cc1` [CERIVASTATIN]: the IC50 result is on record as “Not Active”.

For CISPLATIN, the IC50 result is recorded as “Not Active” and the Ki entry was “Not Active”.

For the next test, the target named is T5, Estrogen receptor (Homo sapiens, UniProt P03372). Also: in other assays of this panel Not Active means under 50% inhibition at 10 µM.
T5 sequence (P03372 whole entry): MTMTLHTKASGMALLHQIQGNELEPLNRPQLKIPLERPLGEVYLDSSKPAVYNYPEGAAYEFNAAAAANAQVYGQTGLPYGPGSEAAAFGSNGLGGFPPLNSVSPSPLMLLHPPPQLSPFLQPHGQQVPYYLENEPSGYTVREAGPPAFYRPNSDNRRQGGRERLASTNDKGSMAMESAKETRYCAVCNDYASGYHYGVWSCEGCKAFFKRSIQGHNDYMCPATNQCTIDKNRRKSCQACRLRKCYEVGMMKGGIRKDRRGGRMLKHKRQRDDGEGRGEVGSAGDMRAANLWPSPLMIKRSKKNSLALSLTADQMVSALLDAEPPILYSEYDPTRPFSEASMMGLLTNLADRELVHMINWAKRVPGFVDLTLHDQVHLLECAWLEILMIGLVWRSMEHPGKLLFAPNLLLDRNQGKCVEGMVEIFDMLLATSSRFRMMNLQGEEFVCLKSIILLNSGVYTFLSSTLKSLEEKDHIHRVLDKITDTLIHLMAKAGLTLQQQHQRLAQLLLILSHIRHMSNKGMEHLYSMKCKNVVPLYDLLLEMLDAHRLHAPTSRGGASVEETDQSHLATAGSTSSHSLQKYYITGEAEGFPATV
Assay: not given
The settings on record: sf9.
As to `CC1=Nc2ccc(Cl)cc2S(=O)(=O)N1` [DIAZOXIDE], the IC50 entry was “Not Active”.

For `CC(C)(Oc1ccc(CCNC(=O)c2ccc(Cl)cc2)cc1)C(=O)O` [BEZAFIBRATE], the IC50 entry was “Not Active”.

In the case of `CCCCOC(=O)c1ccc(N)cc1` [BUTAMBEN], the IC50 result is listed as “Not Active”.

As to `COCc1c(C(C)C)nc(C(C)C)c(/C=C/[C@@H](O)C[C@@H](O)CC(=O)O)c1-c1ccc(F)cc1` [CERIVASTATIN], the IC50 result is reported as “Not Active”.

For the molecule CISPLATIN, the IC50 entry is recorded as “Not Active” and the Ki result is recorded as “Not Active”.

Tested on in the next test: not listed separately
In words: DRUGMATRIX: Platelet-Derived Growth Factor (PDGF) radioligand binding (ligand: [125I] PDGF). The class given is cell-based. The settings on record: nih3t3; Not Active = under 50% inhibition at 10 µM.
In the case of `CC1=Nc2ccc(Cl)cc2S(=O)(=O)N1` [DIAZOXIDE], the IC50 entry is on record as “Not Active” and the Ki result was “Not Active”.

Regarding `CC(C)(Oc1ccc(CCNC(=O)c2ccc(Cl)cc2)cc1)C(=O)O` [BEZAFIBRATE], the IC50 result is given as “Not Active” and the Ki entry is on record as “Not Active”.

Consider `CCCCOC(=O)c1ccc(N)cc1` [BUTAMBEN], for which the IC50 result was “Not Active” and the Ki result was “Not Active”.

On to `COCc1c(C(C)C)nc(C(C)C)c(/C=C/[C@@H](O)C[C@@H](O)CC(=O)O)c1-c1ccc(F)cc1` [CERIVASTATIN], for which the IC50 result was “Not Active” and the Ki entry is “Not Active”.

Turning to CISPLATIN, the IC50 entry is “Not Active” and the Ki result is “Not Active”.
